Assay results: patent US20110190300A1, “AMIDE COMPOUNDS AND THE USE THEREOF” (priority 2007, published 2011)

Columns and labels:
[1] = molecular target: T1, L-type calcium channel (LTCC) (Rattus norvegicus, UniProt P22002); test: FLIPR calcium mobilization assay for L-type calcium channel; format: cell-based; conditions: calcium mobilization in vitro assay; HEK293 cells stably expressing recombinant rat LTCC subunits (α1c, α2δ, β1), 90 mM KCl
T1 construct: expressed in transfected cells; host or cells: HEK293, stably transfected (pcDNA6.2DEST α1c, pcDNA3.2DEST β1, pcDNA3.1-Zeo α2δ)
T1 sequence (P22002 whole entry): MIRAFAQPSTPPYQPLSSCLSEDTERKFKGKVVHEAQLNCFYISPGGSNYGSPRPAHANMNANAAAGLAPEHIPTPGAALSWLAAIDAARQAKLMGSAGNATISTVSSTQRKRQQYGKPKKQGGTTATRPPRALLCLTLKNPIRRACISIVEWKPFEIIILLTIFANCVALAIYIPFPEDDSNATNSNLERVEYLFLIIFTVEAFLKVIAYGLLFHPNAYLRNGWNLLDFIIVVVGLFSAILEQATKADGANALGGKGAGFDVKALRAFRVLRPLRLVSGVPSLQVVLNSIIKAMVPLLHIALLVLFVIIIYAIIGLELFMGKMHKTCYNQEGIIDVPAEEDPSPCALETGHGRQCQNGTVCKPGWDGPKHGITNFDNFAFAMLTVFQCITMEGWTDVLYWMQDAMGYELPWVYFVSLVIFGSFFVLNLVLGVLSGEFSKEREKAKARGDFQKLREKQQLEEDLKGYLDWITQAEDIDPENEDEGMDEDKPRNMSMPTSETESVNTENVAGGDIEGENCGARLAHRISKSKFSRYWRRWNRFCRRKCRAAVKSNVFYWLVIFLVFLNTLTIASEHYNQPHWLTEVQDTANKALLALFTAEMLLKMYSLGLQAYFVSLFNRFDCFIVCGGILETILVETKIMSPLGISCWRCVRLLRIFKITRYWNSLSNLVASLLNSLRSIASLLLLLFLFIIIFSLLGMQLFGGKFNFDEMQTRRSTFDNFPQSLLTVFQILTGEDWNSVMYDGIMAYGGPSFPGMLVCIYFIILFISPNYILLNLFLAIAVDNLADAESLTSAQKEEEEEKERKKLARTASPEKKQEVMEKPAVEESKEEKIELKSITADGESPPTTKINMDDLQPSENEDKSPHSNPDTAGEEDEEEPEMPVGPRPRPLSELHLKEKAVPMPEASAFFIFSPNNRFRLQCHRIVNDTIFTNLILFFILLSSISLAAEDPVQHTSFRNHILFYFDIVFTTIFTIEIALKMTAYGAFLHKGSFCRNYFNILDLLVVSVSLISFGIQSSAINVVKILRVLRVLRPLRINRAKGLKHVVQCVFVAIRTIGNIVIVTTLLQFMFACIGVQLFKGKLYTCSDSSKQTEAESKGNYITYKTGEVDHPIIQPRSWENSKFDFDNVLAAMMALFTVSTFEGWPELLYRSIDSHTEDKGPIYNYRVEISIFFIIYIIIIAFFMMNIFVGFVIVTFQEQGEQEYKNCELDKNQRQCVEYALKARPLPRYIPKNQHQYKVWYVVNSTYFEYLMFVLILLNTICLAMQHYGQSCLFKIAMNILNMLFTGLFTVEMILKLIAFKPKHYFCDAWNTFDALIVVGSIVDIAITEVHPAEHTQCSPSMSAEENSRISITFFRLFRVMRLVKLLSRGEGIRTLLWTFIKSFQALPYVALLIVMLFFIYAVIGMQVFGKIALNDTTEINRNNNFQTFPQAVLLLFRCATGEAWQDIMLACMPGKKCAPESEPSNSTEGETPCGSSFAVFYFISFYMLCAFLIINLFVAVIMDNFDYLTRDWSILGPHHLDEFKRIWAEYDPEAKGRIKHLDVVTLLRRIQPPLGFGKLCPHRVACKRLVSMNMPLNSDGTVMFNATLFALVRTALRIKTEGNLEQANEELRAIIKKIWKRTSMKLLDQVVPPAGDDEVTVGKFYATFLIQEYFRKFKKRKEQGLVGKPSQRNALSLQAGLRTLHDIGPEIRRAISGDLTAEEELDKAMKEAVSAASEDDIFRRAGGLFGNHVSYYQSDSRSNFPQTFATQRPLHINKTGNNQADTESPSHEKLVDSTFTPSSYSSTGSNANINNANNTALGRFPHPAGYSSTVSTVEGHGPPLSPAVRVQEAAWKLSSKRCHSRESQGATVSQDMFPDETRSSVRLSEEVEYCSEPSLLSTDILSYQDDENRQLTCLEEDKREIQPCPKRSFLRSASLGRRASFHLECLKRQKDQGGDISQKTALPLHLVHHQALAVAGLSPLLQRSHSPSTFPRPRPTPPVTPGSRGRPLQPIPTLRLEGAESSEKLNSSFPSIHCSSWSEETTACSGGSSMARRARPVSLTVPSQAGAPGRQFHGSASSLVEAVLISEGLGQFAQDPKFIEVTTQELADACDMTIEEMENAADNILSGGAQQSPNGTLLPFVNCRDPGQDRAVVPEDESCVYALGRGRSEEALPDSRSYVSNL
T1 sequence (P54290 25-944 partner limits assumed): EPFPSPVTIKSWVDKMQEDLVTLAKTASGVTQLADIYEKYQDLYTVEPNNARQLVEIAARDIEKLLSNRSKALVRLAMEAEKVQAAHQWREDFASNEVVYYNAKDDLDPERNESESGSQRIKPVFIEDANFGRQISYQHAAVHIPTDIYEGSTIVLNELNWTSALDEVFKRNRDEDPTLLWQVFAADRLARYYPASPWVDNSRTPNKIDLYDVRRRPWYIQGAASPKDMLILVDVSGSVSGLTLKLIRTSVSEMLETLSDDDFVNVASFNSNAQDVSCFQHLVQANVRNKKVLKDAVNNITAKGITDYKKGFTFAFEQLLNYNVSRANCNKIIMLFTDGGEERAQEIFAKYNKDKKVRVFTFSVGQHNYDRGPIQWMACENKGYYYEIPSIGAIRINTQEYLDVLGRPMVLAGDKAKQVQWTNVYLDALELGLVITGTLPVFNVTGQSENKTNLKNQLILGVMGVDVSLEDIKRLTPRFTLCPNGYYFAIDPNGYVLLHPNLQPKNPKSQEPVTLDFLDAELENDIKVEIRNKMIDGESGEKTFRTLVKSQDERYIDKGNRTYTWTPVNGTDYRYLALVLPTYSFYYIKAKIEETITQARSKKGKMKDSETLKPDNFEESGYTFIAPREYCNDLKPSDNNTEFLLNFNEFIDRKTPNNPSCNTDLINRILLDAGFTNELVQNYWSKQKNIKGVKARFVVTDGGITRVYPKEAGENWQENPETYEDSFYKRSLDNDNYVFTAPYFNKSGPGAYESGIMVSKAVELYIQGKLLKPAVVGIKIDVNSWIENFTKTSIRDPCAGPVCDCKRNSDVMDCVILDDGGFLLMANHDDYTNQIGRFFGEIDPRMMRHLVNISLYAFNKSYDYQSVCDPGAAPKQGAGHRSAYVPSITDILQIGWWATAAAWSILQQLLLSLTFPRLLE
T1 sequence (P54290 945-1091 partner limits assumed): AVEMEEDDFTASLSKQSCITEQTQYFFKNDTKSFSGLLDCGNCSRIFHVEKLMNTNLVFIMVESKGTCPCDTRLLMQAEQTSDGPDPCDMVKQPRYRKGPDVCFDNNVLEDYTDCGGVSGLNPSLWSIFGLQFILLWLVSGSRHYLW
T1 sequence (P54283 whole entry partner): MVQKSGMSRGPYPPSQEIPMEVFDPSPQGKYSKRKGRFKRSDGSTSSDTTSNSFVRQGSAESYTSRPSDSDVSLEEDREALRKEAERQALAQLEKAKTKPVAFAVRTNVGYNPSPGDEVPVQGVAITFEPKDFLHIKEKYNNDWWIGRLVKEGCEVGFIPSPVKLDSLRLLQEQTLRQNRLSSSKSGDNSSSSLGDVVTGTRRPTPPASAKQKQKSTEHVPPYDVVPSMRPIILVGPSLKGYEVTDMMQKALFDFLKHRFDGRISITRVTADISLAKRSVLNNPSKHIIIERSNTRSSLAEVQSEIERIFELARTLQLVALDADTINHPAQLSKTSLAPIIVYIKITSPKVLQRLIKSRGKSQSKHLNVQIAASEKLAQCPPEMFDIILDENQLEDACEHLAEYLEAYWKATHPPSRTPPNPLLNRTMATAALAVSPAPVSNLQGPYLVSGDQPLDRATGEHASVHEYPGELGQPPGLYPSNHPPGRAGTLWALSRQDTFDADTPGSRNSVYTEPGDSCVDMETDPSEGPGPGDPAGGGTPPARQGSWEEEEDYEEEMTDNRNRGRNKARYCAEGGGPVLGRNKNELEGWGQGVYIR
Method: Recombinant human embryonal kidney cells (HEK293, ATCC) stably transfected with either N-type calcium channel (NTCC) subunits (α1b, α2δ, and β3) or L-type calcium channel (LTCC) subunits (α1c, α2δ, and β1) were routinely cultured in growth medium consisting of Dulbecco's Modified Eagles Medium containing 10% FBS, 100 U/mL penicillin, 100 μg/mL streptomycin, 4 mM L-glutamine, 500 μg/mL geneticin (G418), 20 μg/mL Blasticidin S (InVivogen, San Diego, Calif.) and 500 μg/mL zeocin (InVivogen).
FLIPR Calcium Mobilization Assay for L-type Calcium Channel. One day prior to performing this assay, HEK293 cells stably expressing recombinant rat L-type calcium channel (LTCC) subunits (α1c, α2δ, and β1) were trypsinized, then seeded on poly-D-lysine-coated 96-well clear-bottom black plates (Becton Dickinson, Franklin Lakes, N.J.) at 75,000 cells/well. On the day of the assay, the plates were washed with LTCC wash buffer (127 mM NaCl, 2 mM MgCl2, 700 μM NaH2PO4, 5 mM CaCl2, 5 mM NaHCO3, 8 mM HEPES, 10 mM glucose, pH 7.4), then loaded with 0.1 mL of LTCC wash buffer containing Fluo-4 (3 μM final concentration, Molecular Probes, Eugene, Oreg.). After 1 hour, the cells were washed with 0.1 mL LTCC wash buffer and resuspended in 0.05 mL LTCC assay buffer (same composition as LTCC wash buffer). Plates were then transferred to a FLIPR^96 for assay. The FLIPR measured basal Fluo-4 fluorescence for 15 seconds, then added 0.05 mL of each compound tested diluted in LTCC assay buffer at final concentrations ranging from about 846 pM to about 17 μM. Fluo-4 fluorescence was then measured for 5 minutes. 0.1 mL KCl agonist dissolved in LTCC assay buffer was then added to the cells to produce a final concentration of 90 mM KCl, and fluorescence was measured for another 45 seconds. Data were collected over the entire time course and analyzed using Excel, Graph Pad Prism, or an in-house regression analysis software.

[2] = molecular target: T2, N-type calcium channel (NTCC) (Homo sapiens, UniProt Q00975); test: FLIPR calcium mobilization assay for N-type calcium channel; format: cell-based; conditions: calcium mobilization in vitro assay; differentiated IMR32 cells, 5 μM nitrendipine, 90 mM KCl
T2 construct: host or cells: IMR32 cells differentiated with dibutyryl cyclic AMP and bromodeoxyuridine
Method: Cell maintenance and differentiation. Unless noted otherwise, cell culture reagents were purchased from Mediatech of Herndon, Md. IMR32 cells (American Type Culture Collection, ATCC, Manassas, Va.) were routinely cultured in growth medium consisting of minimum essential medium containing 10% fetal bovine serum (FBS, Hyclone, Logan, Utah), 100 U/mL penicillin, 100 μg/mL streptomycin, 2 mM L-glutamine, 1 mM sodium pyruvate, and 1× MEM non-essential amino acids. 80-90% confluent flasks of cells were differentiated using the following differentiation medium: Growth medium plus 1 mM dibutyryl cyclic AMP (Sigma, St. Louis, Mo.), and 2.5 μM bromodeoxyuridine (Sigma). Cells were differentiated for 8 days by replacing differentiation medium every 2-3 days.
FLIPR Calcium Mobilization Assay for N-type Calcium Channel. One day prior to performing this assay, differentiated IMR32 cells were treated with 1× CellStripper, and seeded on poly-D-lysine-coated 96-well clear-bottom black plates (Becton Dickinson, Franklin Lakes, N.J.) at 200,000 cells/well. On the day of the assay, the cell plates were washed with IMR32 buffer (127 mM NaCl, 1 mM KCl, 2 mM MgCl2, 700 μM NaH2PO4, 5 mM CaCl2, 5 mM NaHCO3, 8 mM HEPES, 10 mM glucose, pH 7.4), then pre-stimulated with KCl and loaded as follows: 0.05 mL of IMR32 buffer, 0.05 mL of each compound tested diluted in IMR32 buffer containing 20 μM nitrendipine (Sigma), and 0.1 mL KCl dissolved in IMR32 buffer, plus Fluo-4 were added (3 μM final concentration, Molecular Probes, Eugene, Oreg.). Final test compound concentrations ranged from about 846 pM to about 17 μM, final nitrendipine concentration was 5 μM, and final KCl concentration was 90 mM. After 1 hour, the cells were washed twice with 0.05 mL of each compound tested in nitrendipine-containing IMR32 buffer (no KCl or Fluo-4), and then replaced with 0.1 mL of each compound tested in nitrendipine-containing IMR32 buffer. Plates were then transferred to a Fluorimetric Imaging Plate Reader (FLIPR^96, Molecular Devices, Inc., Sunnyvale, Calif.) for assay. The FLIPR measured basal Fluo-4 fluorescence for 315 seconds (i.e., 5 minutes and 15 seconds), then added 0.1 mL KCl agonist dissolved in IMR32 buffer and measured fluorescence for another 45 seconds. Final test compound concentrations on the cells after FLIPR read ranged from about 846 pM to about 17 μM, final nitrendipine concentration was 5 μM, and final KCl concentration was 90 mM. Data were collected over the entire time course and analyzed using Excel, Graph Pad Prism (version 3.02, Graph Pad, San Diego, Calif.), or an in-house non-linear regression analysis software.

| IC50 [1] [µM] | IC50 [2] [µM] | Compound |
| --- | --- | --- |
| > 20 | 0.42 | O=C(CON=C1CCN(S(=O)(=O)c2ccc(OC(F)(F)F)cc2)CC1)Nc1ccccc1 [Example 2, N-Phenyl-2-[1-(4-trifluoromethoxybenzenesulfonyl)piperidin-4-ylideneaminooxy]acetamide] |
| 8.5 | 1.2 | CN(C(=O)CON=C1CCN(S(=O)(=O)c2ccc(OC(F)(F)F)cc2)CC1)c1ccccc1 [Example 3, N-Methyl-N-phenyl-2-[1-(4-trifluoromethoxybenzenesulfonyl)piperidin-4-ylideneaminooxy]acetamide] |
| > 20 | 1.1 | O=C(CON=C1CCN(S(=O)(=O)c2ccc(OC(F)(F)F)cc2)CC1)NCc1ccccc1 [Example 98, N-Benzyl-2-[1-(4-trifluoromethoxybenzenesulfonyl)piperidin-4-ylideneaminooxy]acetamide] |
| > 20 | 0.3 | CC(C)CNC(=O)CON=C1CCN(S(=O)(=O)c2ccc(OC(F)(F)F)cc2)CC1 [Example 99, N-Isobutyl-2-[1-(4-trifluoromethoxybenzenesulfonyl)piperidin-4-ylideneaminooxy]acetamide] |
| > 20 | 0.41 | O=C(CON=C1CCN(S(=O)(=O)c2ccc(OC(F)(F)F)cc2)CC1)NC1CCCCC1 [Example 100, N-Cyclohexyl-2-[1-(4-trifluoromethoxybenzenesulfonyl)piperidin-4-ylideneaminooxy]acetamide] |
| > 20 | 0.21 | CCCNC(=O)CON=C1CCN(S(=O)(=O)c2ccc(OC(F)(F)F)cc2)CC1 [Example 102, N-Propyl-2-[1-(4-trifluoromethoxybenzenesulfonyl)piperidin-4-ylideneaminooxy]acetamide] |
| > 20 | 0.24 | O=C(Nc1ccc(F)cc1)ON=C1CCN(S(=O)(=O)c2cccc(C(F)(F)F)c2)CC1 [Example 104, 1-(3-(trifluoromethyl)phenylsulfonyl)piperidin-4-one O-4-fluorophenylcarbamoyl oxime] |

| Compound | IC50 [1] [µM] | IC50 [2] [µM] |
| --- | --- | --- |
| O=C(Nc1ccc(F)cc1)ON=C1CCN(C(=O)Oc2cccc(C(F)(F)F)c2)CC1 [Example 131, 3-(trifluoromethyl)phenyl 4-(4-fluorophenylcarbamoyloxyimino)piperidine-1-carboxylate] |  | 1.8 |
